These results are taken from article PMC4667898, “Antibody Binding Selectivity: Alternative Sets of Antigen Residues Entail High-Affinity Recognition” (PLoS ONE, 2015).

This assay has as its system scFv1F4-QL34S. The assay is described as follows: PEPperCHIP peptide array, spot fluorescence after staining with DyLight680-labeled scFv. Type of assay: binding. As for the experimental part:
ScFv1F4-QL34S labeling with DyLight680, peptide array synthesis and binding detection were performed by PEPperPRINT GmbH (PEPperCHIP® Platform Technology, Heidelberg, Germany). The permutation scans were carried out on the WT decapeptide ^6TAMFQDPQER^15 and on its variants. In a permutation scan, the effect on binding of replacing each of the ten peptide positions by all amino-acids except cysteine is analyzed, which requires the synthesis of 190 spot peptides per starting peptide (19 amino-acids at 10 positions). Two arrays were prepared, each containing the permutation analysis of the WT peptide and of 19 variants. All peptides were synthesized in duplicate (7,600 peptide spots per array). The peptide arrays were stained with the DyLight680-labeled scFv1F4-QL34S. The permutation scans of the WT peptide and of variant ^6TAMFQDPFER^15 are highlighted by white frames. The staining pattern of array A (S1 Fig) was published previously.
The objective was to investigate whether a starting amino-acid replacement modifies the effect on binding of amino-acid changes at neighboring positions. For example the effect of a deleterious starting change could be compensated by a replacement elsewhere. Residue interdependences may also be found in the case of non-deleterious starting replacements. They can be identified by comparing the permutation patterns of the WT and variant peptides. Arrays A [28] (S1 Fig) and B (Fig 1) each contained the permutation scans of the WT decapeptide ^6TAMFQDPQER^15 and of nineteen variants. Data recorded for the WT and 14 variant peptides of array A were described previously. The data presented here include all permutation scans in array B (WT and 19 variants), together with those of 5 variants in array A. One of these was performed twice in array A (peptide ^6TRMFQDVQER^15). Therefore the data include the permutations scans of the WT and of 23 variant decapeptides (Table 1), each of them being recorded at least in duplicate.
The repeatability of fluorescence measurements can be assessed because: i/ all peptides were synthesized in duplicate (Fig 1), ii/ the duplicated scan of peptide ^6TRMFQDVQER^15 was repeated in array A and iii/ several peptides occur repeatedly within a same or in different families. Array B contained 3,222 different peptides, with 105 peptides repeated between 6 and 46 times.
The signal intensity ranges differed in the two arrays: 6,800 and 18,100 for the scFv—WT decapeptide interaction in arrays A and B, respectively (Table 1). However normalization of the intensity values with respect to the mean value of the scFv1F4-WT peptide intensity in each panel, produced well-superimposed patterns (Fig 2). […] In addition, assuming that T6 is not part of the epitope, the variability observed for this position (standard deviation = 0.12) provides insight into the statistical significance of the normalized intensities.

[1] abbreviates: array B, mean intensity relative to WT decapeptide of array B.
Where [2] appears, read: array A, mean intensity relative to WT decapeptide of array A.

As for “TAMFQDQQER [starting variant of the WT decapeptide on array B]”, the “% of WT signal” value under setting [1] amounted to 5%. Take “TAMLQDPQER [starting variant of the WT decapeptide on array B]”: the “% of WT signal” value under setting [1] worked out at 3%. Consider “TGSFQRASFM [starting variant of the WT decapeptide on array B]”, for which the “% of WT signal” value under setting [1] was 2%. Turning to “TAMFQDVQER [starting variant of the WT decapeptide on array B]”, the “% of WT signal” value under setting [1] amounted to 16%. As for “TGSFQDPQER [starting variant of the WT decapeptide on array B]”, the “% of WT signal” value is, setting by setting: under setting [1], 66%; (array B, mean intensity relative to WT decapeptide of array B, listed as A7G-M8S) “exceeded 10%”. Take “TAMFQDPSFM [starting variant of the WT decapeptide on array B]”: the “% of WT signal” value under setting [1] is 2%. “TAMFQDHQER [starting variant of the WT decapeptide on array B]”: the “% of WT signal” value under setting [1] is reported as 4%. Regarding “TRMFQDVQER [starting variant of the WT decapeptide on array A]”, the “% of WT signal” value under setting [2] was determined as 5%. On to “TAMFQDPFER [starting variant of the WT decapeptide on array B]”, for which the “% of WT signal” value under setting [1] worked out at 68%. As to “TAMFQRAQER [starting variant of the WT decapeptide on array B]”, under setting [1], the “% of WT signal” value came to 3%. As to “TAMFQDYQER [starting variant of the WT decapeptide on array B]”, under setting [1], the “% of WT signal” value is on record as 7%. Under “array not stated at the place (arrays A and B)”, the “averaged fluorescence signal as % of that recorded with the WT peptide” value is below 10%. In the case of “TAMFKDPQER [starting variant of the WT decapeptide on array B]”, the “% of WT signal” value under setting [1] came out at 2%. Consider “TQMFQDPYER [starting variant of the WT decapeptide on array A]”, for which the “% of WT signal” value runs as follows: under setting [2], 23%; (array A, mean intensity relative to WT decapeptide of array A, listed as A8Q-Q13Y) “exceeded 10%”.

As to “TAMFQDVYER [starting variant of the WT decapeptide on array B]”, the “% of WT signal” value under setting [1] came to 16% and the “% of WT signal” value (array B, mean intensity relative to WT decapeptide of array B, listed as P12V-Q13Y) is recorded as “exceeded 10%”. In the case of “TAMFQDPQEA [starting variant of the WT decapeptide on array B]”, the “% of WT signal” value under setting [1] came out at 6%. The same measure, in the same setting: as for “TAMFQDPQEQ [starting variant of the WT decapeptide on array B]”, the figure is 24%; as for “TAMFADPQER [starting variant of the WT decapeptide on array B]”, 2%. “TAMFQTPQER [starting variant of the WT decapeptide on array B]”: the “% of WT signal” value under setting [1] is given as 3%. As to “TAMFQDPQER [WT decapeptide, residues 6-15 of HPV16-E6 oncoprotein, array-synthesized]”, the “% of WT signal” value under setting [1] is reported as 100%. As to “TAMFQDVFER [starting variant of the WT decapeptide on array A]”, the “% of WT signal” value was 14% under setting [2] and “exceeded 10%” (array A, mean intensity relative to WT decapeptide of array A, listed as P12V-Q13F). “TAMFQSPYER [starting variant of the WT decapeptide on array A]”: the “% of WT signal” value under setting [2] is reported as 21% and the “% of WT signal” value (array A, mean intensity relative to WT decapeptide of array A, listed as D11S-Q13Y) is “exceeded 10%”. “TAMLADPQER [starting variant of the WT decapeptide on array B]”: the “% of WT signal” value under setting [1] was found to be 3%. Still for that read-out and setting: as for “TAMFQDPYER [starting variant of the WT decapeptide on array B]”, the figure is 37%. As for “TAMDQDPQER [starting variant of the WT decapeptide on array B]”, under setting [1], the “% of WT signal” value is listed as 3%.
